Measurements reported in patent publication US20220331391A1 (priority 2021, published 2022).
≈ marks a conversion by molar mass, not a printed value. Where “and” joins values, the source holds several entries; their conditions need not be identical. Equal entries are not always repeated. Where two headings read alike, the source gives them in different places.

Tests used:
[1] = tested on: Coccidioides posadasii, Silveira strain; details: cited from earlier work
[2] = tested on: Coccidioides posadasii, Silveira strain; design: species or system mice; details: mouse, in vivo
[3] = dog, in vivo, po
[4] = mouse, in vivo, cited from earlier work; for Cmax in plasma / Tmax in plasma / t1/2 in plasma: po
[5] = mouse, in vivo; cited from earlier work
Coccidioides [6] = details: mouse, in vivo, 40 mg/kg/day; cited from earlier work
Coccidioides [7] = details: mouse, in vivo; cited from earlier work
[8] = mouse, in vivo, po, cited from earlier work
[9] = human, in vivo, po
[10] = in vivo, cited from earlier work

## OC(Cn1cncn1)(Cn1cncn1)c1ccc(F)cc1F [FCZ, Fluconazole, reference compound]
[1]
  MFC: > 100 µg/mL
  MIC: 6.25 µg/mL (≈ 20.4 µM)
[2]
  Brains sterilized in survivors: 20%
  Clear brains of survivors (mice): 1 of 5
  Infected brain and infected other organs, number of mice among survivors: 4
  Infected brain only, number of mice among survivors: 0
  Infected brain, number of mice among survivors: 4
  Infected kidney, number of mice among survivors: 1
  Infected liver, number of mice among survivors: 4
  Infected lung, number of mice among survivors: 4
  Infected spleen, number of mice among survivors: 3
  Kidney CFU in survivors: number of mice with 0 CFU: 5
  Kidney CFU in survivors: number of mice with 1-2 CFU: 0
  Kidney CFU in survivors: number of mice with 10-20 CFU: 0
  Kidney CFU in survivors: number of mice with TNTC (too numerous to count): 0
  Liver CFU in survivors: number of mice with 0 CFU: 1
  Liver CFU in survivors: number of mice with 1-2 CFU: 1
  Liver CFU in survivors: number of mice with 10-20 CFU: 2
  Liver CFU in survivors: number of mice with TNTC (too numerous to count): 1
  Lung CFU in survivors: number of mice with 0 CFU: 1
  Lung CFU in survivors: number of mice with 1-2 CFU: 2
  Lung CFU in survivors: number of mice with 10-20 CFU: 1
  Lung CFU in survivors: number of mice with TNTC (too numerous to count): 1
  No infection any organ, number of mice (complete sterilization): 1
  Semiquantitative culture, CFU in all organs except the spleen: too numerous to count
  Semiquantitative culture, CFU in spleen: no CFU
  Spleen CFU in survivors: number of mice with 0 CFU: 2
  Spleen CFU in survivors: number of mice with 1-2 CFU: 2
  Spleen CFU in survivors: number of mice with 10-20 CFU: 1
  Spleen CFU in survivors: number of mice with TNTC (too numerous to count): 0
  Survival: 50%
  Survivors: 5/10

## C[C@@H]([C@H](N)C(=O)N[C@H](C(=O)O)[C@H]1O[C@@H](n2ccc(=O)[nH]c2=O)[C@H](O)[C@@H]1O)[C@H](O)c1ccc(O)cn1 [nikZ, Nikkomycin Z]
[1]
  MFC: 2.5 µg/mL (≈ 5.05 µM)
  MIC: 2.5 µg/mL (≈ 5.05 µM)
[3]
  Blood level as % of Cmax by 8 hours: about 5%
  Time to reach Cmax: 1 to 2 h
[4]; 100 mg/kg
  Cmax in plasma: 4200 ng/mL
  Tmax in plasma: 2 h
  t1/2 in plasma: 2.2 h
[4]; 300 mg/kg
  Cmax in plasma: 8000 ng/mL
  Tmax in plasma: 1 h
  t1/2 in plasma: 2.3 h
[4]
  Half-life in blood (clearance): 1 to 2 h
[5]
  Tolerated oral dose: up to 2000 mg/kg/day
Coccidioides [6]
  Survival: 20%
Coccidioides [7]
  Liver CFU asymptote of dose response curve: about 100 CFU
  Lung fungal count at suppression (dose response curve): below 10 CFU
  Spleen fungal count at suppression (dose response curve): below 10 CFU
  log10 CFU reduction in liver: −1.7 log10 CFU
  log10 CFU reduction in lung: −3.2 log10 CFU
  log10 CFU reduction in spleen: −1.8 log10 CFU
[8]; 100 mg/kg
  Cmax in brain: 0.20 mcg/gm
  Tmax in brain: 2 h
  t1/2 in brain: 6.2 h
[8]; 300 mg/kg
  Cmax in brain: 0.26 mcg/gm
  Tmax in brain: 2 h
  t1/2 in brain: 4.4 h
[9]
  Blood level as % of Cmax by 8 hours: about 5%
  Time to reach Cmax: 1 to 2 h
mouse, in vivo
  Cmin as % of Cmax: 1%
mouse, in vivo, po
  Blood level as % of Cmax by 8 hours: about 5%
  Time to reach Cmax: 1 to 2 h
mouse, in vivo, po, 50 mg/kg
  AUC: 13,000
  Cmax: 3,750 ng/ml
  T 1/2: 2.61 h
  Tmax: 1
mouse, in vivo, po, 100 mg/kg
  AUC: 20,600
  Cmax: 4,620 ng/ml
  T 1/2: 2.15 h
  Tmax: 1
mouse, in vivo, po, 300 mg/kg
  AUC: 38,200
  Cmax: 7,950 ng/ml
  T 1/2: 2.26 h
  Tmax: 2
Time 0.5
  Mouse plasma nikZ level: 2920 ng/mL
  Mouse plasma nikZ level, % (of Cmax): 77.9%
Time 1
  Mouse plasma nikZ level: 3750 ng/mL
  Mouse plasma nikZ level, % (of Cmax): 100%
Time 2
  Mouse plasma nikZ level: 2320 ng/mL
  Mouse plasma nikZ level, % (of Cmax): 62% and 61.9%
Time 4
  Mouse plasma nikZ level: 1400 ng/mL
  Mouse plasma nikZ level, % (of Cmax): 37% and 37.3%
Time 8
  Mouse plasma nikZ level: 180 ng/mL
  Mouse plasma nikZ level, % (of Cmax): 4.8%
Time 12
  Mouse plasma nikZ level: 35 ng/mL
  Mouse plasma nikZ level, % (of Cmax): 0.9%
Time 24
  Mouse plasma nikZ level: 7.5 ng/mL
  Mouse plasma nikZ level, % (of Cmax): 0.2%
[10]; human
  Half-life in blood (clearance): 1 to 2 h
[10]; po
  Dose at which tapering in oral uptake efficiency is observed (breakpoint): about 5.5 mg/kg
[2]
  Brains sterilized in survivors: 86% and 89% and 80%
  Brains sterilized, mice/10 treated: ≥ 6 mice/10
  Clear brains of survivors (mice): 6 of 7 and 8 of 9
  Infected brain, number of mice among survivors: 1 and 2
  Infected kidney, number of mice among survivors: 0
  Infected spleen, number of mice among survivors: 0
  Kidney CFU in survivors: number of mice with 0 CFU: 7 and 9 and 10
  Kidney CFU in survivors: number of mice with 1-2 CFU: 0
  Kidney CFU in survivors: number of mice with 10-20 CFU: 0
  Kidney CFU in survivors: number of mice with TNTC (too numerous to count): 0
  Liver CFU in survivors: number of mice with 0 CFU: 6 and 9 and 10
  Liver CFU in survivors: number of mice with 10-20 CFU: 0
  Liver CFU in survivors: number of mice with TNTC (too numerous to count): 0
  Lung CFU in survivors: number of mice with 0 CFU: 6 and 9
  Lung CFU in survivors: number of mice with 10-20 CFU: 0
  Lung CFU in survivors: number of mice with TNTC (too numerous to count): 0
  No infection any organ, number of mice (complete sterilization): 6 and 8
  Spleen CFU in survivors: number of mice with 0 CFU: 7 and 9 and 10
  Spleen CFU in survivors: number of mice with 1-2 CFU: 0
  Spleen CFU in survivors: number of mice with 10-20 CFU: 0
  Spleen CFU in survivors: number of mice with TNTC (too numerous to count): 0
  Survivors: 7/10 and 9/10 and 10/10
